Like-named read-outs stand apart in the source and are kept apart here.
How the values were obtained:
Assay type in all cases: cell-based
AR [1] = target: T1, AR (Homo sapiens, UniProt P10275, T878A); conditions: LNCaP; for effect on DHT-induced luciferase activity: pARR3, cotreatment with DHT; for effect on E2-induced luciferase activity: pARR3, cotreatment with E2
T1 construct: AR protein levels in whole cell lysates were determined by Western blot analysis; endogenous in cells; host or cells: LNCaP
T1 sequence (P10275 1-920 T878A): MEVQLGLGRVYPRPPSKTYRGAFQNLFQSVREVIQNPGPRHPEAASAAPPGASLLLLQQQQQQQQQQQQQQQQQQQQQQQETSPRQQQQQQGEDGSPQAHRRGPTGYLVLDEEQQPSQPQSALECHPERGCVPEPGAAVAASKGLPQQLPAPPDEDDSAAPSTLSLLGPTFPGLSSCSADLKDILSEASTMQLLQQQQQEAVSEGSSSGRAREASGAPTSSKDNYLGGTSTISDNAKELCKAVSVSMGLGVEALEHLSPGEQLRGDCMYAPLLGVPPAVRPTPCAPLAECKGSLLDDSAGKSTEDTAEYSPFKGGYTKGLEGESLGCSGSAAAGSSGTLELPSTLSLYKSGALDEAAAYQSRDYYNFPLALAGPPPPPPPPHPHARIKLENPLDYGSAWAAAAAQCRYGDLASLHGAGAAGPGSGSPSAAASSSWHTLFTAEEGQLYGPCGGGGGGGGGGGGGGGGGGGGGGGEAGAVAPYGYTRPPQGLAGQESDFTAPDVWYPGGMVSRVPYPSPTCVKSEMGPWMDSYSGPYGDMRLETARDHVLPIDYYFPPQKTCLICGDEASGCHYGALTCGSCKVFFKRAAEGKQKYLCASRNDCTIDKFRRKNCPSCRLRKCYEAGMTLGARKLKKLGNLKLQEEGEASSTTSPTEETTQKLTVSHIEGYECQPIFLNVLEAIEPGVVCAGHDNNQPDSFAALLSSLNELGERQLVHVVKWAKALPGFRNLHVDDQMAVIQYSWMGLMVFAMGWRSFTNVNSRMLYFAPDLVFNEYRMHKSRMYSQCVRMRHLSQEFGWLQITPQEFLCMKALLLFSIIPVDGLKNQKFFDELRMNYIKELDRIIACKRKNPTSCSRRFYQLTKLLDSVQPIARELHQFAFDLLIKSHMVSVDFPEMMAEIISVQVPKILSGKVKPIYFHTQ
Procedure: (§1) After 24 h, cells were transfected using Lipofectamine and Plus reagents (Invitrogen) according to manufacturer's instructions. LNCaP and ZR-75 cells were transfected with 500 ng/well of either reporter plasmid, and 250 ng/well of pcDNA3.1-β-gal (Invitrogen) as the internal control. In addition, ZR-75 cells were transfected with 500 ng hAR. Twenty-four hours after treatment, cells were harvested by scraping with 200 μL/well of reporter lysis buffer. Lysates were centrifuged at 40,000 g and luciferase and β-galactosidase activity was assayed with 30 μL of the supernatant extract per sample using a Lumicount luminometer (PerkinElmer, Boston, Mass.). Luciferase activity was normalized to β-galactosidase activity for each transfection well.
Next, LNCaP cells were transfected with pARR3 construct that contained three tandem (3) copies of the probasin androgen response element. The transfected cells were treated with hormone or AhR agonist alone or in combination and luciferase activity was determined as described in the above examples.

AhR = target: T2, AhR (Homo sapiens, UniProt P35869); experiment: AhR activation, pDRE3 luciferase transient transfection in LNCaP cells
T2 construct: LNCaP cells were transfected with pDRE3, treated with various compounds and luciferase activity was determined; endogenous in cells; host or cells: LNCaP
T2 sequence (P35869 11-848): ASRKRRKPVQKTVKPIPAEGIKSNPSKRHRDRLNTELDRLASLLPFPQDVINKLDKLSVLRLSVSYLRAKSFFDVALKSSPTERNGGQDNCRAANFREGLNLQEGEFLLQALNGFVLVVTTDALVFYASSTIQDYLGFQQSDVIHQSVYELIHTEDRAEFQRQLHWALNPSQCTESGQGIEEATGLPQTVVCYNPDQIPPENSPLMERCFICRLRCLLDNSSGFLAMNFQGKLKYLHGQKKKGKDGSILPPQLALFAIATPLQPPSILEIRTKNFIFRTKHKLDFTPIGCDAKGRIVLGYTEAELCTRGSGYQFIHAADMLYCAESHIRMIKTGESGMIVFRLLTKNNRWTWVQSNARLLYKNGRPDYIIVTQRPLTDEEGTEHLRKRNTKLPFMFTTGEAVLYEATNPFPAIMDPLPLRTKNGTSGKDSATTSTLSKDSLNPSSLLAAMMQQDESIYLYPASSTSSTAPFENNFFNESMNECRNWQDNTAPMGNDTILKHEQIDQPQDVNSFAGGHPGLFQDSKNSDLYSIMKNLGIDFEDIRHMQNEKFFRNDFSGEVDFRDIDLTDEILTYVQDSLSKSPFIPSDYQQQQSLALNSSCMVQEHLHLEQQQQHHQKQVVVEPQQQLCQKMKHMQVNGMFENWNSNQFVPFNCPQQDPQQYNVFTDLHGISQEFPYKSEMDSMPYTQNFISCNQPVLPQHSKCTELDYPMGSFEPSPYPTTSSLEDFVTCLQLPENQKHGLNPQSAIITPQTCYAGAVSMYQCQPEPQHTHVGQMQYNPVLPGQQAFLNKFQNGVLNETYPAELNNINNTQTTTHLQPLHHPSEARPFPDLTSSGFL
Procedure: as §1
LNCaP cells were transfected with pDRE3, treated with various compounds and luciferase activity was determined as described in the above Examples.

AR [2] = target: T1, AR; conditions: LNCaP, pPB; for effect on E2-induced luciferase activity: cotreatment with 10 nM E2
Procedure: as §1
The transfected cells were then treated with hormone or AhR agonist alone or in combination and luciferase activity was determined as described in the above examples.

22Rv1 cells = experiment: Growth inhibition of 22Rv1 prostate cancer cells
Procedure: 22Rv1 cells were treated with various concentrations of TCDD.
In a second study, 22Rv1 cells were maintained in 10% serum, and various concentrations of 6-MCDF were added to the cells.

Row | Compound | effect on DHT-induced luciferase activity (AR [1]) | effect on E2-induced luciferase activity (AR [1]) | luciferase activity induction (AhR; pDRE3, 2 μM) | effect on E2-induced luciferase activity (AR [2]; HPTE 10 μM) | induction of luciferase activity by AhR agonist alone (AR [2]; MCDF 2 μM) | 22Rv1 cell proliferation (22Rv1 cells; cells maintained in 10% serum, various concentrations) | luciferase activity induction compared to solvent control (DMSO) (AhR; pDRE3, 10 nM) | effect on DHT-induced luciferase activity (AR [2]; cotreatment with 10 nM DHT, MCDF 2 μM, HPTE 10 μM) | testosterone-induced growth of 22Rv1 cells (22Rv1 cells; 1 nM) | constitutive growth of 22Rv1 cells (22Rv1 cells; 1 nM alone)
1 | Cc1cc(Cl)cc2c1oc1cc(Cl)cc(Cl)c12 [6-MCDF, 6-methyl-1,3,8-trichlorodibenzofuran] | did not decrease | not a significant decrease | > 7 fold | significantly decreased | did not significantly induce activity | concentration-dependent decrease |  |  |  | 
2 | Clc1cc2c(cc1Cl)Oc1cc(Cl)c(Cl)cc1O2 [TCDD, 2,3,7,8-tetrachloro-p-dioxin] | did not decrease | not a significant decrease |  | significantly decreased | did not significantly induce activity |  | > 9 fold | significantly inhibited | inhibited | inhibited
